Measurements taken from patent US20240009239A1, “THERAPEUTIC TARGETING OF MESOTHELIN IN ACUTE MYELOID LEUKEMIA WITH CHIMERIC ANTIGEN RECEPTOR T CELL THERAPY” (FRED HUTCHINSON CANCER CENTER, priority 2020, published 2024).

How the values were obtained:
[1] = system: ADAM17-mediated MSLN shedding; experiment: Cell surface mesothelin on Nomo-1 by flow cytometry after GM6001; assay type: cell-based; settings: Nomo-1 cells, GM6001 50 uM, 48 hours, vs DMSO control
Description: Cell surface abundance and viability were measured by flow cytometry (FIG. 2A) and shed MSLN was quantified by ELISA (FIG. 2B). […] Data presented are mean tumor specific lysis+/−standard deviation from 3 technical replicates at indicated E:T ratios for 3 independent experiments. […] Secreted levels of IFN-g (left panel) and TNF-a (right panel) were measured after 8 hours of T cell/AML co-culture at E:T 10:1 by ELISA. Data presented are mean+/−standard deviation from 3 technical replicates. Statistical significance was determined by unpaired Student's t test, assuming unequal variances. p<0.05(*), p<0.005(**), p<0.0005(***).
Nomo-1 and Kasumi-1 were obtained from ATCC and maintained in RPMI with FBS (10% for Nomo-1, 20% for Kasumi-1) and L-glutamine (2 mM). […] The Kasumi-1 MSLN+ cell line was engineered by transducing Kasumi-1 cells with a lentivirus encoding MSLN driven by the ELF1a promoter.
For in vivo CAR T study, Nomo-1 cells, which express endogenous level of MSLN, and Kasumi-1 cells engineered to express MSLN with a lentivirus construct (Kasumi-1 MSLN+) were transplanted into NSG mice. Mock transduced MSLN-directed CAR T cells were infused 1 week (Nomo-1) and 2 weeks (Kasumi-1 MSLN+) following leukemic cell injection. Leukemic burden was measured by bioluminescence IVIS imaging weekly.

Nomo-1 cells = experiment: Viability of Nomo-1 cells after GM6001 without CAR T cells; assay type: cell-based; settings: GM6001 treatment, data not shown
Description: FIGS. 2A-2D. […] FIGS. 2A-2B. […] FIG. 2C. […] FIG. 2D.
AML cell lines and GM6001 treatment.

CNC(=O)[C@H](Cc1c[nH]c2ccccc12)NC(=O)[C@@H](CC(=O)NO)CC(C)C [GM6001]
level of cell surface mesothelin [1]: increased
cell viability of Nomo-1 cells in the absence of CAR T cells (Nomo-1 cells): did not significantly impact
